Earlier results in PubChem BioAssay AID1259410 (Chemical Carcinogenesis Research Information System (CCRIS), 2018).

System: rodent tumor promotion studies, tumor incidence
Assay: CCRIS tumor promotion studies

C#C[C@]1(O)CC[C@H]2[C@@H]3CCc4cc(O)ccc4[C@H]3CC[C@@]21C
outcome (Carcinogen: 3,2'-DIMETHYL-4-AMINOBIPHENYL, 13394-86-0, Doses [Carcinogen]: 100 MG/KG 1/WK FOR 20 WK, Doses [Promoter]: 0, 0.75 PPM IN DIET FOR DURATION OF STUDY (STUDY DURATION: 50 WK), Route [Carcinogen]: SUBCUTANEOUS, Route [Promoter]: ORAL, Species: HAMSTER, Strain/Sex: SYRIAN/FEMALE): gallbladder: adenoma or adenocarcinoma
outcome (Carcinogen: 3,2'-DIMETHYL-4-AMINOBIPHENYL, 13394-86-0, Doses [Carcinogen]: 100 MG/KG 1/WK FOR 20 WK, Doses [Promoter]: 0, 0.75 PPM IN DIET FOR DURATION OF STUDY (STUDY DURATION: 50 WK), Route [Carcinogen]: SUBCUTANEOUS, Route [Promoter]: ORAL, Species: HAMSTER, Strain/Sex: SYRIAN/MALE): gallbladder: adenoma or adenocarcinoma
outcome (Carcinogen: 7,12-DIMETHYLBENZ[A]ANTHRACENE (DMBA) [57-97-6]AND N-BIS(2-HYROXYPROPYL)NITROSOSAMINE (DHPN) [53609-64-6], Doses [Carcinogen]: DMBA-SINGLE DOSE OF 50 MG/KG BW AT 7 WKS OF AGE, DHPN- 0.2% IN WATER WKS 6-14 OF AGE (STUDY DURATION: 27 WKS FOR MALES;, Doses [Carcinogen]: DMBA-SINGLE DOSE OF 50 MG/KG BW AT 7 WKS OF AGE, DHPN- 0.2% IN WATER WKS 6-14 OF AGE (STUDY DURATION: 27 WKS FOR MALES;, Doses [Promoter]: 0, 0.2, 1% IN DIET (STUDY DURATION: 27 AND 36 WKS FOR MALES AND FEMALES RESPECTIVELY), Doses [Promoter]: 0, 0.2, 1% IN DIET (STUDY DURATION: 27 AND 36 WKS FOR MALES AND FEMALES RESPECTIVELY), Route [Carcinogen]: ORAL (DMBA, GAVAGE; DHPN, DRINKING WATER), Route [Promoter]: MATERNAL MILK TO 3 WKS OF AGE, DIET FROM WKS 3 TO 6 OF AGE, Species: RAT, Strain/Sex: F344/FEMALE, MALE): negative
outcome (Carcinogen: DIETHYLNITROSAMINE, 55-18-5, Doses [Carcinogen]: 100 MG/KG ONCE, Doses [Promoter]: 0, 10 PPM (0.5 MG/KG/D) 2 MO POST CARCINOGEN DOSE AND CONTINUING FOR 8 MO (STUDY DURATION: 12 MO), Route [Carcinogen]: INTRAPERITONEAL, Route [Promoter]: ORAL, Species: RAT, Strain/Sex: CD-1/FEMALE): liver: carcinoma/neoplastic nodules
outcome (Carcinogen: DIETHYLNITROSAMINE, 55-18-5, Doses [Carcinogen]: 100 MG/KG ONCE, Doses [Promoter]: 0, 10 PPM (0.5 MG/KG/D) 2 MO POST CARCINOGEN DOSE AND CONTINUING FOR 8 MO (STUDY DURATION: 12 MO), Route [Carcinogen]: INTRAPERITONEAL, Route [Promoter]: ORAL, Species: RAT, Strain/Sex: CD-1/MALE): liver: carcinoma/neoplastic nodules
outcome (Carcinogen: DIETHYLNITROSAMINE, 55-18-5, Doses [Carcinogen]: 200 MG/KG ONCE, Doses [Promoter]: 0, 160-210 UG/KG BW DAILY FROM RELEASE PELLETS FOR 30 WK BEGINNING 2 WK POST CARCINOGEN DOSE (STUDY DURATION: 30 WK), Route [Carcinogen]: INTRAPERITONEAL, Route [Promoter]: SUBCUTANEOUS, Species: RAT, Strain/Sex: WISTAR/FEMALE): liver: hepatocellular carcinoma

c1ccc2c(c1)cc1ccc3cccc4ccc2c1c34
outcome (Carcinogen: BENZO[A]PYRENE [50-32-8], Doses [Carcinogen]: 8 MMOL/MOUSE 3X/WK FOR 25 WKS (STUDY DURATION: 30 WKS), Doses [Promoter]: UVA 40 KJ/M2 FOR 25 WKS 2 HR AFTER CARCINOGEN TREATMENT (STUDY DURATION: 30 WKS), Route [Carcinogen]: DERMAL, Route [Promoter]: IRRADIATION TO SKIN, Species: MOUSE, Strain/Sex: SKH-1/FEMALE (20/GROUP)): skin: tumor incidence and multiplicity increased

CC(C)(c1cc(Br)c(O)c(Br)c1)c1cc(Br)c(O)c(Br)c1
outcome (Carcinogen: N-bis(2-hydroxypropyl)nitrosamine, 53609-64-6, Doses [Carcinogen]: 0.08 and 0.2% in drinking water for 4 wks at 7-10 wks of age, study duration to 39 wk of age, Doses [Promoter]: In utero (0.01, 0.1, or 1% in diet of dams) and then in drinking water of weaned offspring for 2 wk, Route [Carcinogen]: Oral, Route [Promoter]: In utero and in drinking water, Species: Rat, Strain/Sex: F344/Male (12-15/group)): none found

O=C(O)/C=C/c1ccc(O)c(O)c1
outcome (Carcinogen: DIETHYLNITROSAMINE, 55-18-5, N-METHYLNITROSOUREA, 684-93-5, 1,2-DIMETHYLHYDRAZINE, 540-73-8, N-BUTYL-N-(4-HYDROXYBUTYL)N, Carcinogen: DIETHYLNITROSAMINE, 55-18-5, N-METHYLNITROSOUREA, 684-93-5, 1,2-DIMETHYLHYDRAZINE, 540-73-8, N-BUTYL-N-(4-HYDROXYBUTYL)N, Doses [Carcinogen]: 100 MG/KG BW DEN ONCE FOLLOWED BY 20 MG/KG BW MNU 2/WK FOR 2 WK THEN 40 MG/KG BW DMH 2/WK FOR THE NEXT 2WK, 0.05% BBN IN, Doses [Promoter]: 0, 0.4% IN DIET FOR 24 WK BEGINNING POST CARCINOGEN TREATMENT (STUDY DURATION: 28 WK), Route [Carcinogen]: INTRAPERITONEAL, INTRAPERITONEAL, SUBCUTANEOUS, ORAL, Route [Carcinogen]: INTRAPERITONEAL, INTRAPERITONEAL, SUBCUTANEOUS, ORAL, Route [Promoter]: ORAL, Species: RAT, Strain/Sex: F344/MALE): forestomach: papilloma
outcome (Carcinogen: N-METHYL-N'-NITRO-N-NITROSOGUANIDINE, 70-25-7, Doses [Carcinogen]: 150 MG/KG BW IN 50% DMSO ONCE, Doses [Promoter]: 1% IN DIET BEGINNING 1 WK POST CARCINOGEN TREATMENT FOR 51 WK (STUDY DURATION: 52 WK), Route [Carcinogen]: GAVAGE, Route [Promoter]: ORAL, Species: RAT, Strain/Sex: F344/MALE): forestomach: papilloma, squamous cell carcinoma

C/C(=C\CO)CCC[C@H](C)CCC[C@H](C)CCCC(C)C
outcome (Carcinogen: 7,12-DIMETHYLBENZ[A]ANTHRACENE, 57-97-6, Doses [Carcinogen]: 100 UG ONCE, Doses [Promoter]: 0, 100 MG 2 D/WK FOR 16 WK BEGINNING 1 WK POST CARCINOGEN DOSE (STUDY DURATION: 41 WK), Route [Carcinogen]: DERMAL, Route [Promoter]: DERMAL, Species: MOUSE, Strain/Sex: ICR/FEMALE): skin: tumor

NN=C(N)N
outcome (Carcinogen: AZOXYMETHANE, Doses [Carcinogen]: 2.5 MG/KG IN DISTILLED WATER 1/WK FOR 10 WK, Doses [Promoter]: 100 MG/KG IN 0.9%, NACL, 3/WK FOR 24 WK ADMINISTERED SIMULTANEOUSLY AND POST CARCINOGEN DOSES (STUDY DURATION: 52 WK), Route [Carcinogen]: SUBCUTANEOUS, Route [Promoter]: INTRAGASTRIC, Species: RAT, Strain/Sex: F344/MALE): colon: tumor
outcome (Carcinogen: N-METHYL-N'-NITRO-N-NITROSOGUANIDINE, 70-25-7, Doses [Carcinogen]: 25 UG/ML IN DRINKING WATER FOR 25 WK, Doses [Promoter]: 0, 25 MG/KG BW 1/2 D FOR 25 WK BEGINNING POST CARCINOGEN TREATMENT (STUDY DURATION: 52 WK), Route [Carcinogen]: ORAL, Route [Promoter]: SUBCUTANEOUS, Species: RAT, Strain/Sex: WISTAR/MALE): stomach: adenocarcinoma

Oc1ccc(Cl)cc1Cc1ccccc1
outcome (Carcinogen: 7,12-DIMETHYLBENZ[A]ANTHRACENE, 57-97-6, Doses [Carcinogen]: 50 UG IN ACETONE ONCE, Doses [Promoter]: 3 MG IN ACETONE 3/WK FOR 51 WK (STUDY DURATION: 52 WK), Route [Carcinogen]: DERMAL, Route [Promoter]: DERMAL, Species: MOUSE, Strain/Sex: CD-1/FEMALE): skin: papilloma

C=C(C)[C@H]1CC=C(C)CC1
outcome (Carcinogen: 7,12-DIMETHYLBENZ(A)ANTHRACENE, Doses [Carcinogen]: TOP, Route [Carcinogen]: DERMAL, Route [Promoter]: DERMAL, Species: MOUSE, Strain/Sex: MALE,FEMALE): integumentary system (skin)
outcome (Carcinogen: N-ETHYL-N-HYDROXYETHYLNITROSAMINE, 13147-25-6, Doses [Carcinogen]: 500 PPM IN DRINKING WATER FOR 2 WK, Doses [Promoter]: 0, 150 MG/KG/D IN CORN OIL 5 D/WK FOR 30 WK BEGINNING POST CARCINOGEN TREATMENT (STUDY DURATION: 32 WK), Route [Carcinogen]: ORAL, Route [Promoter]: GAVAGE, Species: RAT, Strain/Sex: F344/MALE): kidney: adenoma
outcome (Carcinogen: URETHANE, Doses [Carcinogen]: TOP, Route [Carcinogen]: DERMAL, Route [Promoter]: DERMAL, Species: MOUSE, Strain/Sex: MALE,FEMALE): integumentary system (skin)

CC/C(=C(\c1ccccc1)c1ccc(OCCN(C)C)cc1)c1ccccc1
outcome (Carcinogen: P-DIMETHYLAMINOAZOBENZENE [60-11-7], Doses [Carcinogen]: 0.5% IN DIET FOR 28 WK (STUDY DURATION: 20 WK), Doses [Promoter]: 0, 0.025% IN DIET FOR 25 WK BEGINNING 3 WK POST FIRST CARCINOGEN DOSE (STUDY DURATION: 28 WK), Route [Carcinogen]: ORAL, Route [Promoter]: ORAL, Species: MOUSE, Strain/Sex: CF-1/MALE): liver: hepatocellular carcinoma

O=c1cc[nH]c(=O)[nH]1
outcome (Carcinogen: N-ETHYL-N-HYDROXYETHYLNITROSAMINE, 13147-25-6, Doses [Carcinogen]: 0.05% IN DRINKING WATER FOR 3 WK, Doses [Promoter]: 0, 3% IN DIET FOR 3 WK ADMINISTERED SIMULTANEOUSLY WITH CARCINOGEN (STUDY DURATION: 52 WK), Route [Carcinogen]: ORAL, Route [Promoter]: ORAL, Species: RAT, Strain/Sex: F344/FEMALE): kidney: adenocarcinoma
outcome (Carcinogen: N-METHYL-N-NITROSOUREA, 684-93-5, Doses [Carcinogen]: 20 MG/KG 2/WK FOR 4 WK, Doses [Promoter]: 0, 3% IN DIET FOR 20 WK BEGINNING POST LAST CARCINOGEN DOSE (STUDY DURATION: 24 WK), Route [Carcinogen]: INTRAPERITONEAL, Route [Promoter]: ORAL, Species: RAT, Strain/Sex: F344/MALE): urinary bladder: carcinoma
